Like-named read-outs stand apart in the source and are kept apart here. Values belong to the molecule of their own block, whether it stands above or below them.
Columns and labels:
CFTR [1] = settings: cited from earlier work
[2] = tested on: purinergic receptors in the airway epithelium; settings: in vitro; cited from earlier work
[3] = cited from earlier work
wild-type CFTR = biological target: T1, wild-type CFTR (Homo sapiens, UniProt P13569); assay: Single channel excised inside-out patch-clamp and burst analysis, wild-type CFTR; assay type: cell-based; settings: for frequency of prolonged bursts compared with PPi / bursts of activity: PPi analogs at 5 mM; for bursts of activity: C127 cell patches with a single active channel
T1 construct: excised inside-out patches with ATP and PKA

CFTR Cl^- channel [4] = biological target: T2, CFTR Cl^- channel (Homo sapiens, UniProt P13569)
CFTR-ΔF508 = settings: 5 mM PPi, 75 nM PKA, 0.3 mM ATP
CFTR channel = CFTR channel (Homo sapiens, UniProt P13569); settings: 5 mM PPi
Description: Maximum likelihood analysis and kinetic modeling were performed as described (Winter, M. C. et al. (1994) Biophys. J. 66:1398-1403). Briefly, unfiltered single channel data were digitized on a microcomputer (Apple Macintosh, Apple Computer, Inc., Cupertine, Calif.) equipped with a multifunctional data acquisition board (NB-MIO-16) and LabVIEW 2 software (National Instruments, Austin, Tex.) at 5 kHz following filtering with an 8-pole Bessel filter (Frequency Devices Inc., Haverhill, Mass.) at a comer frequency of 1 kHz with subsequent digital filtering at 500 Hz. Previous work has shown that a linear three state model (C1 .rarw.→C2 .rarw.→O) best describes the kinetics of CFTR channel activity (Winter, M. C. et al. (1994) Biophys. J. 66:1398-1403). The Maple 5 symbolic algebra program (Waterloo Maple Software, Waterloo, Canada) was used to derive the open and closed time probability density functions for this model by solving the matrix equations in terms of the rate constants. The resulting equations were used in LabVIEW 2 to determine the set of rate constants which yielded the maximum likelihood for the open and closed times observed with different experimental interventions.
It has been previously shown that the activity of single phosphorylated CFTR channels can be described by a linear three state model (Winter, M. C. et al. (1994) Biophys. J. 66:1398-1403), and this model has been used to describe how ATP, ADP, and inorganic phosphate alter the rate constants which describe transitions between states (Carson, M. R. et al., 1994 Biophys. J (In Press); Winter, M. C. et al., 1994 Biophys. J. 66:1398-1403). […] The rate constants (β1, β2, α1, and α2) describe the rate of transition between each state.

human CFTR = settings: [α-32P]8-N3ATP 30 αM, PPi in mM, 60 s UV irradiation; relative to control without PPi
Description: Photolabeling of membrane-associated CFTR was performed as previously described (Travis, S. M. et al. (1993) J. Biol. Chem. 268:15336-15339). […] Membranes were prepared by differential centrifugation and resuspended in 20 mM HEPES, pH 7.5, 50 mM NaCl, 3 mM MgSO4, with 2 μg/ml each of leupeptin, aprotinin, and pepstatin. Membrane-associated CFTR was phosphorylated prior to photolabeling by incubation with 100 nM PKA and 0.1 mM ATP in buffer containing 10 m MgCl2 and 50 mM 1,4-piperazine diethane sulfonic acid, pH 6.8 for 20 min at 30° C., then diluted in 12 volumes buffer containing 20 mM tris(hydroxymethyl)aminomethane, pH 7.5, 0.2 mM EGTA and 1 μM calyculin A. Membranes were collected by centrifugation and resuspended at a concentration of 2.5 mg protein/ml in the same buffer.
Photolabeling was performed by preincubating membranes (50 μg membrane protein/sample) on ice with [α-^32 P]8-N3ATP (30 αM, 6-12 Ci/mmol) and PPi (in mM). After 60 s UV irradiation, CFTR was solubilized and immunoprecipitated as described (Travis, S. M. et al. (1993) J. Biol. Chem. 268:15336-15339) using antibodies raised against the R domain (M13-1, 0.3 μg/sample) and against the C terminus (M1-4, 10 μg/sample). Immunocomplexes were analyzed by SDS-PAGE and incorporation of [α-^32 P]8-N3ATP was quantitated with an AMBIS radioanalytic imaging system (AMBIS Systems, Inc., San Diego, Calif.).

CFTR [5] = settings: artificial lipid bilayers; cited from earlier work
[6] = biological target: endogenous CFTR in the apical membrane of T-84 intestinal epithelial monolayers (Homo sapiens, UniProt P13569)
CFTR Cl^- channel [7] = biological target: T2, CFTR Cl^- channel; settings: external addition of 5 mM PPi, n=4
Description: To determine if inorganic pyrophosphate (PPi) would alter CFTR Cl^- channel activity, 5 mM PPi was added to an excised, inside-out membrane patch containing many CFTR channels which had been phosphorylated by PKA.

sodium channels = settings: aerosolized, initial results; cited from earlier work

Sequence of endogenous CFTR in the apical membrane of T-84 intestinal epithelial monolayers (P13569 whole entry): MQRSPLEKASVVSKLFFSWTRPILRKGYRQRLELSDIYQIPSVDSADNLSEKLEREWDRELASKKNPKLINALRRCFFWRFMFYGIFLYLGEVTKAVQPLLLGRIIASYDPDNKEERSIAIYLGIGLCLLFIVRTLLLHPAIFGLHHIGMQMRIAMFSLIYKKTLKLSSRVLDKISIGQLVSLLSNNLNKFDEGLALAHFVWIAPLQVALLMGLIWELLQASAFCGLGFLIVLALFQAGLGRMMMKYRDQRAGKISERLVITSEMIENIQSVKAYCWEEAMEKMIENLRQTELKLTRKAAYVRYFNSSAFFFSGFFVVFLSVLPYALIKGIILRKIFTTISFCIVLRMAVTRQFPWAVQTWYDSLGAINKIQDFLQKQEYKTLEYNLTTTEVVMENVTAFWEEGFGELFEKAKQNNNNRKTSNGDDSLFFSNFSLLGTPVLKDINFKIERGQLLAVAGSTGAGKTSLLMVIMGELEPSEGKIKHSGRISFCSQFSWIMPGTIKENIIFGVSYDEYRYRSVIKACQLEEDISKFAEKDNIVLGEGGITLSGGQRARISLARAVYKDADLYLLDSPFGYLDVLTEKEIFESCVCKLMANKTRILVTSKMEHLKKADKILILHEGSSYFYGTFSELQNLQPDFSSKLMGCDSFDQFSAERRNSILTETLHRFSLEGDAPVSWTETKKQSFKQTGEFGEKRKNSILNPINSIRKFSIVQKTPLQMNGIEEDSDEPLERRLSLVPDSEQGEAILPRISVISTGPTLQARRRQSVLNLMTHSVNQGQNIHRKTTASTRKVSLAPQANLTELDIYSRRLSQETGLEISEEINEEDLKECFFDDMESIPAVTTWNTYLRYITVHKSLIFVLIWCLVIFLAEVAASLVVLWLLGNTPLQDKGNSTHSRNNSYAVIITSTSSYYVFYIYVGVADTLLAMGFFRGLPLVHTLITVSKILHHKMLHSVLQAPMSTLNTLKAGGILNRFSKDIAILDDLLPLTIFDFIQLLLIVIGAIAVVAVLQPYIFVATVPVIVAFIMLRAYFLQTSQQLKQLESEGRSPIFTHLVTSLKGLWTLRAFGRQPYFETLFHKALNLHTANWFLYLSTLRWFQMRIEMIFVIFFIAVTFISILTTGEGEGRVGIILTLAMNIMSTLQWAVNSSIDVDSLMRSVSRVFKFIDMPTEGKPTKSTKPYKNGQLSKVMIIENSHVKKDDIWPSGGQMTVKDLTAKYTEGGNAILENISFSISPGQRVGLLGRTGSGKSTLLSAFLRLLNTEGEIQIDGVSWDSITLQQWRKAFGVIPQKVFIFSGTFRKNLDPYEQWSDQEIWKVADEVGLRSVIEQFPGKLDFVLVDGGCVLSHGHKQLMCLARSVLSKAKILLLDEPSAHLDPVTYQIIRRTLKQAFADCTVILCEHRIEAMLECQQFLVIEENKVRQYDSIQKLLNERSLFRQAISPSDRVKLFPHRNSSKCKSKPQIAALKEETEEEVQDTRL
T2 sequence (P13569 whole entry): as above
Sequence of CFTR channel (P13569 whole entry): as above
T1 sequence (P13569 whole entry): as above

SMILES: Nc1ncnc2c1ncn2[C@@H]1O[C@H](COP(=O)(O)OP(=O)(O)NP(=O)(O)O)[C@@H](O)[C@H]1O [AMP-PNP]
binding affinity relative to ATP (CFTR [1]): one twentieth

SMILES: Nc1ncnc2c1ncn2[C@@H]1O[C@H](COP(=O)(O)OP(=O)(O)OP(=O)(O)O)[C@@H](O)[C@H]1O [ATP, Adenosine 5'-triphosphate]
chloride secretion [2]: can stimulate chloride secretion

frequency of prolonged bursts compared with PPi (wild-type CFTR; 75 nM PKA, 0.3 mM ATP): less frequent
bursts of activity (wild-type CFTR; 75 nM PKA, 0.3 mM ATP): prolonged bursts of activity
effects on Po and average burst duration (channel activity) (wild-type CFTR; nonhydrolyzable PPi analogs): did not achieve statistical significance
SMILES: O=P(O)(O)CP(=O)(O)O [PCP, Methylenediphosphonic acid]
maintenance of calcaemia after initial treatment ([3]; daily oral administration of 1600 mg): calcaemia can be maintained
efficacy in tumor-induced bone disease ([3]; one slow infusion of 600 mg): shown efficacy

SMILES: O=P([O-])([O-])OP(=O)([O-])[O-].[Na+].[Na+].[Na+].[Na+] [PPi, Sodium pyrophosphate]
Cl- current (CFTR Cl^- channel [4]; 5 mM PPi in the presence of 0.3 mM ATP, channels phosphorylated by PKA, cytosolic side): reversible increase
Cl- current (CFTR Cl^- channel [4]; PPi in the absence of ATP): did not stimulate current
EC50 (CFTR Cl^- channel [4]; read-out: apparent EC50 of stimulation of Cl- current, in the presence of ATP, PKA-phosphorylated channels): ~500 µM
Po (CFTR-ΔF508; before: 0.07±0.01, n=3): 0.21±0.022
average burst duration (CFTR-ΔF508; before: 125±19 ms, n=3): 1023 ± 330 ms
increase of Po (CFTR-ΔF508; n=3): three-fold
increase of average burst duration (CFTR-ΔF508; n=3): eight-fold
stimulation of ΔF508 activity (CFTR-ΔF508; n=5): three-fold
decrease of rate constant α2 (CFTR channel; 0.3 mM ATP, 75 nM PKA): 37%
rate constant β1 (transition from long closed state C1 to bursting state) (CFTR channel; 0.3 mM ATP, 75 nM PKA): increased β1
rate constant β2 (CFTR channel; 0.3 mM ATP, 75 nM PKA): did not alter β2
rate constant α1 (rate of leaving the bursting mode) (CFTR channel; 0.3 mM ATP, 75 nM PKA, four single-channel patches): six-fold decrease
change in Po within a burst (CFTR channel; n=4, not significantly different): < 5%
duration of the long closed states between bursts of activity (wild-type CFTR; 5 mM PPi, 0.3 mM ATP, 75 nM PKA): appeared to decrease the duration of the long closed states
open state probability (Po) (wild-type CFTR; 5 mM PPi, 0.3 mM ATP, 75 nM PKA, before: 0.39±0.021, n=8, p<0.001): 0.81±0.03
mean burst duration (wild-type CFTR; 5 mM PPi, 0.3 mM ATP, 75 nM PKA, before: 175±6 ms, n=8, p<0.001): 1568 ± 219 ms
single channel current amplitude (wild-type CFTR; after addition of 5 mM PPi, 0.3 mM ATP, 75 nM PKA, before: 0.90±0.05, n=8, p=0.812): 0.91±0.02 pA
8-N3 ATP labeling of CFTR (human CFTR): concentration-dependent increase
duration of bursts (CFTR [5]): prolonged the duration of bursts
apical membrane Cl- current ([6]; 1 or 5 mM PPi added to basolateral solution after cAMP, 1 mM ATP): further increase in current
apical membrane Cl- current ([6]; 1 or 5 mM PPi in the absence of cAMP): did not increase current above baseline levels
time for current to decrease to baseline levels after removal of cAMP ([6]; in the continued presence of PPi): ≤ 3 min
whole-cell currents (CFTR Cl^- channel [7]): did not alter currents

SMILES: O=c1ccn([C@@H]2O[C@H](COP(=O)(O)OP(=O)(O)OP(=O)(O)O)[C@@H](O)[C@H]2O)c(=O)[nH]1 [UTP]
chloride secretion [2]: can stimulate chloride secretion

SMILES: N=C(N)NC(=O)c1nc(Cl)c(N)nc1N [amiloride]
rate of disease progression, as measured by lung function tests (sodium channels): slight change in the rate of disease progression
safety (sodium channels): safe

frequency of prolonged bursts compared with PPi (wild-type CFTR; 75 nM PKA, 0.3 mM ATP): less frequent
bursts of activity (wild-type CFTR; 75 nM PKA, 0.3 mM ATP): prolonged bursts of activity
SMILES: CC(O)(P(=O)(O)O)P(=O)(O)O [etidronate, 1-hydroxyethylidenebisphosphonic acid, reference compound]
efficacy in tumor-induced bone disease ([3]; 500 mg/day for 3 days): shown efficacy
